Oligonucleotides are written 5' to 3', each unit as a sugar letter and its base; * is a phosphorothioate linkage, no mark a phosphodiester; rarer units and linkages stand in square brackets, end groups in braces. Plain capitals give the bases only. e = 2'-O-(2-methoxyethyl) (MOE); [5mC] = 5-methylcytosine; d = 2'-deoxy (DNA)
Tested on: human CD40 mRNA
Test: Inhibition of CD40 mRNA levels by oligonucleotides (real-time RT-PCR)
Type: cell-based
Parameters: concentration or dose not given beside the values
Details: 2'-MOE gapmers, 18 nucleotides, phosphorothioate throughout; averaged from three experiments
Procedure: When cells reach about 80% confluency, they are treated with oligonucleotide. For cells grown in 96-well plates, wells are washed once with 200 μl Opti-MEM-1 reduced-serum medium (Life Technologies) and then treated with 130 μl of Opti-MEM-1 containing 3.75 μg/ml LIPOFECTIN (Life Technologies) and the desired oligonucleotide at a final concentration of 150 nM. After 4 hours of treatment, the medium was replaced with fresh medium. Cells were harvested 16 hours after oligonucleotide treatment.
Poly(A)+ mRNA was isolated according to Miura et al. (Clin. Chem., 1996, 42, 1758). Briefly, for cells grown on 96-well plates, growth medium was removed from the cells and each well was washed with 200 ul cold PBS. 60 ul lysis buffer (10 mM Tris-HCl, pH 7.6, 1 mM EDTA, 0.5 M NaCl, 0.5% NP-40, 20 mM vanadyl-ribonucleoside complex) was added to each well, the plate was gently agitated and then incubated at room temperature for five minutes. 55 ul of lysate was transferred to Oligo d(T) coated 96 well plates (AGCT Inc., Irvine, Calif.). Plates were incubated for 60 minutes at room temperature, washed 3 times with 200 ul of wash buffer (10 mM Tris-HCl pH 7.6, 1 mM EDTA, 0.3 M NaCl). After the final wash, the plate was blotted on paper towels to remove excess wash buffer and then air-dried for 5 minutes. 60 ul of elution buffer (5 mM Tris-HCl pH 7.6), preheated to 70° C. was added to each well, the plate was incubated on a 90° hot plate for 5 minutes, and the eluate then transferred to a fresh 96 well plate. Cells grown on 100 mm or other standard plates may be treated similarly, using appropriate volumes of all solutions.
Quantitation of CD40 mRNA levels was determined by real-time PCR (RT-PCR) using the ABI PRISM 7700 Sequence Detection System (PE-Applied Biosystems, Foster City, Calif.) according to manufacturer's instructions. This is a closed-tube, non-gel-based, fluorescence detection system which allows high-throughput quantitation of polymerase chain reaction (PCR) products in real-time.
As opposed to standard PCR, in which amplification products are quantitated after the PCR is completed, products in RT-PCR are quantitated as they accumulate. This is accomplished by including in the PCR reaction an oligonucleotide probe that anneals specifically between the forward and reverse PCR primers, and contains two fluorescent dyes. A reporter dye (e.g., JOE or FAM, PE-Applied Biosystems, Foster City, Calif.) is attached to the 5′ end of the probe and a quencher dye (e.g., TAMRA, PE-Applied Biosystems, Foster City, Calif.) is attached to the 3′ end of the probe. When the probe and dyes are intact, reporter dye emission is quenched by the proximity of the 3′ quencher dye. During amplification, annealing of the probe to the target sequence creates a substrate that can be cleaved by the 5′-exonuclease activity of Taq polymerase.
With each cycle, additional reporter dye molecules are cleaved from their respective probes, and the fluorescence intensity is monitored at regular (six-second) intervals by laser optics built into the ABI PRISM 7700 Sequence Detection System. In each assay, a series of parallel reactions containing serial dilutions of mRNA from untreated control samples generates a standard curve that is used to quantitate the percent inhibition after antisense oligonucleotide treatment of test samples.
RT-PCR reagents were obtained from PE-Applied Biosystems, Foster City, Calif. RT-PCR reactions were carried out by adding 25 ul PCR cocktail (1× Taqman buffer A, 5.5 mM MgCl2, 300 uM each of dATP, dCTP and dGTP, 600 uM of dUTP, 100 nM each of forward primer, reverse primer, and probe, 20 U RNAse inhibitor, 1.25 units AmpliTaq Gold, and 12.5 U MuLV reverse transcriptase) to 96 well plates containing 25 ul poly(A) mRNA solution. […]

Row | Substance | % Inhibition (Inhibition of CD40 mRNA Levels by Chimeric Phosphorothioate Oligonucleotides) [%]
1 | 19243 (antisense eG*eT*eG*eT*dC*dT*dG*dT*dT*dT*dC*dT*dG*dA*eG*eG*eT*eG) [compound 19243] | 63.32
2 | 19256 (antisense eG*e[5mC]*eT*e[5mC]*dG*dC*dA*dG*dA*dT*dG*dG*dT*dA*eT*e[5mC]*eA*eG) [compound 19256] | 64.65
3 | 19235 (antisense eT*eT*e[5mC]*eA*dC*dC*dG*dC*dA*dA*dG*dG*dA*dA*eG*eG*e[5mC]*eA) [compound 19235] | 61.03
4 | 19262 (eG*e[5mC]*eA*eG*dA*dT*dG*dA*dC*dA*dC*dA*dT*dT*eG*eG*eA*eG; antisense) [compound 19262] | 78.48
5 | 19247 (antisense eG*eT*eG*e[5mC]*dC*dA*dG*dC*dC*dT*dT*dC*dT*dT*e[5mC]*eA*e[5mC]*eA) [compound 19247] | 61.32
6 | 19218 (DNA eG*eA*e[5mC]*eA*dG*dC*dG*dG*dT*dC*dA*dG*dC*dA*eA*eG*e[5mC]*eA; antisense) [compound 19218] | 67.21
7 | 19216 (DNA eG*e[5mC]*eA*eA*dG*dC*dA*dG*dC*dC*dC*dC*dA*dG*eA*eG*eG*eA; antisense) [compound 19216] | 65.80
8 | 19269 (eG*eT*eT*eT*dG*dT*dG*dC*dC*dT*dG*dC*dC*dT*eG*eT*eT*eG; antisense) [compound 19269] | 70.10
9 | 19212 (DNA eG*eA*e[5mC]*e[5mC]*dA*dG*dG*dC*dG*dG*dC*dA*dG*dG*eA*e[5mC]*e[5mC]*eA; antisense) [compound 19212] | 77.23

Same assay, conditions: oligodeoxynucleotides with phosphorothioate backbones throughout; averages from three experiments

Row | Substance | % INHIB. (Inhibition of CD40 mRNA Levels by Phosphorothioate Oligodeoxynucleotides) [%]
10 | 18626 (DNA dC*dA*dG*dA*dG*dG*dC*dA*dG*dA*dC*dG*dA*dA*dC*dC*dA*dT; antisense) [compound 18626] | 0.00
11 | 18682 (DNA dG*dT*dC*dT*dT*dG*dT*dT*dT*dG*dT*dG*dC*dC*dT*dG*dC*dC; antisense) [compound 18682] | 0.00
12 | 18680 (DNA dC*dT*dG*dT*dT*dG*dC*dA*dC*dA*dA*dC*dC*dA*dG*dG*dT*dC; antisense) [compound 18680] | 18.76
13 | 18625 (DNA dA*dG*dG*dT*dG*dA*dG*dA*dC*dC*dA*dG*dG*dC*dG*dG*dC*dA; antisense) [compound 18625] | 21.89
14 | 18692 (DNA dG*dG*dG*dT*dT*dC*dC*dT*dG*dC*dT*dT*dG*dG*dG*dG*dT*dG; antisense) [compound 18692] | 0.00
15 | 18666 (DNA dG*dA*dA*dA*dC*dC*dC*dC*dT*dG*dT*dA*dG*dC*dA*dA*dT*dC; antisense) [compound 18666] | 0.10
16 | 18693 (DNA dG*dT*dC*dG*dG*dG*dA*dA*dA*dA*dT*dT*dG*dA*dT*dC*dT*dC; antisense) [compound 18693] | 0.00
17 | 18657 (DNA dA*dC*dA*dG*dG*dT*dG*dC*dA*dG*dA*dT*dG*dG*dT*dG*dT*dC; antisense) [compound 18657] | 0.00
18 | 18675 (DNA dT*dC*dG*dA*dA*dA*dG*dC*dA*dG*dA*dT*dG*dA*dC*dA*dC*dA; antisense) [compound 18675] | 0.00
19 | 18659 (DNA dG*dT*dG*dC*dC*dA*dG*dC*dC*dT*dT*dC*dT*dT*dC*dA*dC*dA; antisense) [compound 18659] | 5.67
20 | 18670 (DNA dT*dG*dG*dG*dC*dA*dG*dG*dG*dC*dT*dC*dG*dC*dA*dG*dA*dT; antisense) [compound 18670] | 0.00
